pIC50: −log10 of the molar value.
What was measured:
[1] = system: Caenorhabditis elegans; experiment: Nematicidal activity against Caenorhabditis elegans assessed as reduction in larval motility; assay type: functional, organism-based
[2] = system: Caenorhabditis elegans; experiment: Nematicidal activity against Caenorhabditis elegans assessed as total paralysis at 100 to 200 uM relative to control; assay type: functional; conditions: dose 100-200 µM
[3] = Toxicity in Zebrafish embryo assessed as reduction in viability at 100 uM measured after 24 hrs by microscope based analysis relative to control; set-up: species or system Danio rerio; conditions: read-out: Activity
[4] = Toxicity in Zebrafish embryo assessed as reduction in viability at 50 uM measured after 24 hrs by microscope based analysis relative to control; set-up: species or system Danio rerio; conditions: read-out: Activity

SMILES	pIC50 [1]	Activity [2] [%]	mortality at 24 h, 100 µM [3] [%]	mortality at 24 h, 50 µM [4] [%]
CC1=CC(=O)C[C@@H]2[C@@](C)(CC/C(C)=C/C[n+]3cn(C)c4ncnc(N)c43)[C@H](C)CC[C@@]12C	4.30	100	100	100
CC1=CCC[C@@H]2[C@@](C)(CC/C(C)=C/Cn3c[n+](C)c4ncnc(N)c43)[C@H](C)CC[C@@]12C			100	100
C=CCCCCCCCCC[C@@H](O)[C@H](C)N [HALAMINOL A]			66.6	100
